PMC12115217, “3,3′-((3-Hydroxyphenyl)azanediyl)dipropionic Acid Derivatives as a Promising Scaffold Against Drug-Resistant Pathogens and Chemotherapy-Resistant Cancer” (Pathogens, 2025)
Values after ≈ are worked out from the molar mass of the structure shown. Read-outs that look alike come from different tables or passages of the source.

Tests used:
[1] = system: S. aureus TCH 1516; assay: Broth microdilution MIC, S. aureus TCH 1516; type: cell-based, Staphylococcus aureus; conditions: mecA MRSA isolate, USA300 lineage; CAMHB, 18 ± 2 h
Source text: (§1) The multidrug-resistant S. aureus strain TCH 1516 [USA 300-HOU-MR] was obtained from the American Type Culture Collection (ATCC, Manassas, VA, USA) (Table 1). E. faecalis AR-0671, multidrug-resistant E. coli AR-0001, K. pneumoniae AR-0003, P. aeruginosa AR-1114, and A. baumannii AR-0273 strains were acquired from the Centers for Disease Control and Prevention (CDC) AR isolate bank (Table 1). Prior to the initiation of this study, all microbial strains were stored in commercial cryopreservation systems at a temperature of −80 °C. The strains were cultivated on Columbia sheep blood agar (Becton Dickinson, Franklin Lakes, NJ, USA) or potato dextrose agar (PDA) for Candida (Becton Dickinson, Franklin Lakes, NJ, USA).
(§2) The antimicrobial activity of 3-((3-hydroxyphenyl)amino)propanoic acid derivatives was assessed by using the broth microdilution method, following the guidelines outlined by the Clinical Laboratory Standards Institute (CLSI), with modifications. In brief, the compounds were dissolved in dimethyl sulfoxide (DMSO) to attain a final concentration of 25–30 mg/mL. Vancomycin hydrochloride (MedChem express, Cat. No. HY-17362), cefazolin (MedChem express, Cat. No. HY-B1892), and meropenem (MedChem express, Cat. No. HY-13678) were used as control antimicrobial drugs and were dissolved in DMSO as described before. Dilution series were prepared in deep 96-well microplates to achieve a two-fold concentration range of 0.25, 0.5, 1, 2, 4, 8, 16, 32, and 64 µg/mL, utilizing cation-adjusted Mueller–Hinton broth (CAMHB) as the growth medium. The microplates containing the dilution series were then inoculated with fresh cultures of each tested organism to reach a final concentration of 5 × 10^4 CFU (colony-forming units) of the test organism in media containing 1% DMSO and 1× drug concentration, with a volume of 200 µL per well. Wells that were inoculated with medium containing 1% DMSO served as positive controls. Subsequently, the microplates were incubated at 35 ± 1 °C for 18 ± 2 h. Following the incubation period, the plates were examined by using a manual microplate viewer (Sensititre Manual Viewbox, ThermoFisher Scientific, Waltham, MA, USA). […] All experiments were conducted in duplicate with three technical replicates for each condition.

[2] = system: E. faecalis AR-0671; assay: Broth microdilution MIC, E. faecalis AR-0671; type: cell-based, Enterococcus faecalis; conditions: for MIC: Enterococcus faecalis
Source text: as §1, §2

[3] = system: E. coli AR-0001; assay: Broth microdilution MIC, E. coli AR-0001; type: cell-based, Escherichia coli; conditions: for minimal inhibitory concentration (MIC) E. coli AR-0001: multidrug-resistant, KPC-3, CAMHB; for MIC: Escherichia coli, AR0001, read-out: minimal inhibitory concentration (MIC) E. coli AR-0001
Source text: as §1, §2

[4] = system: K. pneumoniae AR-0003; assay: Broth microdilution MIC, K. pneumoniae AR-0003; type: cell-based, Klebsiella pneumoniae; conditions: for minimal inhibitory concentration (MIC) K. pneumoniae AR-0003: KPC-3, CAMHB; for MIC: Klebsiella pneumoniae, AR0003, read-out: minimal inhibitory concentration (MIC) K. pneumoniae AR-0003
Source text: as §1, §2

[5] = system: P. aeruginosa AR-1114; assay: Broth microdilution MIC, P. aeruginosa AR-1114; type: cell-based, Pseudomonas aeruginosa; conditions: for minimal inhibitory concentration (MIC) P. aeruginosa AR-1114: IMP-15, CAMHB; for MIC: Pseudomonas aeruginosa, AR1114, read-out: minimal inhibitory concentration (MIC) P. aeruginosa AR-1114
Source text: as §1, §2

[6] = system: A. baumannii AR-0273; assay: Broth microdilution MIC, A. baumannii AR-0273; type: cell-based, Acinetobacter baumannii; conditions: for MIC: Acinetobacter baumannii
Source text: as §1, §2

[7] = system: FaDu cells; assay: MTT cell viability at fixed 100 µM, FaDu cells; type: cell-based; conditions: 24 h, described in words (Figure 2)
Method: Test compounds 2–25 were dissolved in hybridoma-grade dimethyl sulfoxide (Millipore, Sigma, Burlington, MA, USA) to prepare stock solutions at concentrations of 10–25 mg/mL. […] For in vitro anticancer activity screening, the compounds were thawed at room temperature, protected from light, and the aliquots were diluted in complete cell culture media to achieve a final concentration of 100 µM and used for the in vitro assays. The cytotoxicity assays were performed in triplicate.
FaDu cells were obtained from the American Type Culture Collection (Rockville, MD, USA). HEK293 cells were kindly provided by Dr. Iliev lab at the Jill Roberts Institute for Inflammatory Bowel Disease, Weill Cornel Medicine of Cornel University (New York, NY, USA). All cells were cultivated in Dulbecco’s Modified Eagle Medium/Nutrient Mixture F-12 (DMEM/F-12) (Gibco, Waltham, MA, USA), 10% fetal bovine serum (FBS) (Gibco, Waltham, MA, USA), 100 U/mL penicillin, and 100 μg/mL streptomycin (P/S) (Gibco, Waltham, MA, USA). Culturing conditions were maintained at 37 °C in a humidified atmosphere containing 5% CO2. The culture medium was refreshed every 2–3 days, and cells were passaged upon reaching 70–80% confluence.
The in vitro inhibitory effects of the compounds were assessed by using the MTT assay. Briefly, cells were plated in 96-well plates at a density of 1 × 10⁴ cells per well. After the cells were allowed to adhere overnight at 37 °C in 5% CO₂, they were treated with compounds at a concentration of 100 µM in triplicate. Following a 20 h incubation, the MTT reagent was added, and the cells were further incubated for 4 h. The resulting formazan was solubilized in anhydrous DMSO, and absorbance was measured at 570 nm by using a microplate reader. Cell viability was calculated by using the following formula: ([AE − AB]/[AC − AB]) × 100%, where AE, AC, and AB represent the absorbance values of experimental samples, untreated controls, and blank wells, respectively. Data analysis was performed by using GraphPad Prism or QuickCalcs.

[8] = system: S. aureus TCH 1516; assay: Broth microdilution MIC, S. aureus TCH 1516; type: cell-based; conditions: Staphylococcus aureus
[9] = system: E. coli AR-0001; assay: Broth microdilution MIC, E. coli AR-0001; type: cell-based; conditions: Escherichia coli, AR0001; multidrug-resistant, KPC-3; CAMHB, 18 ± 2 h; read-out: minimal inhibitory concentration (MIC) E. coli AR-0001
[10] = system: K. pneumoniae AR-0003; assay: Broth microdilution MIC, K. pneumoniae AR-0003; type: cell-based; conditions: Klebsiella pneumoniae, AR0003; KPC-3; CAMHB, 18 ± 2 h; read-out: minimal inhibitory concentration (MIC) K. pneumoniae AR-0003
[11] = system: P. aeruginosa AR-1114; assay: Broth microdilution MIC, P. aeruginosa AR-1114; type: cell-based; conditions: Pseudomonas aeruginosa, AR1114; IMP-15; CAMHB, 18 ± 2 h; read-out: minimal inhibitory concentration (MIC) P. aeruginosa AR-1114
[12] = AR0671, CAMHB, 18 ± 2 h, read-out: minimal inhibitory concentration (MIC) E. faecalis AR-0671
[13] = AR0273, OXA-23, CAMHB, 18 ± 2 h, read-out: minimal inhibitory concentration (MIC) A. baumannii AR-0273
[14] = MRSA / USA300, mecA MRSA isolate, USA300 lineage, CAMHB, 18 ±, read-out: minimal inhibitory concentration (MIC) S. aureus TCH 1516
[15] = AR0671, read-out: minimal inhibitory concentration (MIC) E. faecalis AR-0671
[16] = AR0273, read-out: minimal inhibitory concentration (MIC) A. baumannii AR-0273
[17] = MRSA / USA300, read-out: minimal inhibitory concentration (MIC) S. aureus TCH 1516

SMILES | minimal inhibitory concentration (MIC) S. aureus TCH 1516 [1] [µg/mL] | minimal inhibitory concentration (MIC) E. faecalis AR-0671 ([2]; CAMHB) [µg/mL] | MIC [2, 12] [µg/mL] | minimal inhibitory concentration (MIC) E. coli AR-0001 [3] [µg/mL] | minimal inhibitory concentration (MIC) K. pneumoniae AR-0003 [4] [µg/mL] | minimal inhibitory concentration (MIC) P. aeruginosa AR-1114 [5] [µg/mL] | MIC [6, 13] [µg/mL] | minimal inhibitory concentration (MIC) A. baumannii AR-0273 ([6]; OXA-23, CAMHB) [µg/mL] | MIC [8, 14] [µg/mL] | MIC [9] [µg/mL] | MIC [10] [µg/mL] | MIC [11] [µg/mL] | post-treatment viability (MTT assay) [7] | MIC [2, 15] [µg/mL] | MIC [3] [µg/mL] | MIC [4] [µg/mL] | MIC [5] [µg/mL] | MIC [6, 16] [µg/mL] | MIC [8, 17] [µg/mL]
O=C(O)CCN(CCC(=O)O)c1cccc(O)c1 [Compound 2, 3,3′-((3-Hydroxyphenyl)azanediyl)dipropionic Acid] | >64 | >64 | > 64 | >64 | >64 | >64 | > 64 | >64 | > 64 | > 64 | > 64 | > 64 | minimal cytotoxicity |  |  |  |  |  | 
O=C(CCN(CCC(=O)NN=Cc1ccc([N+](=O)[O-])cc1)c1cccc(O)c1)NN=Cc1ccc([N+](=O)[O-])cc1 [Compound 10, 3,3′-((3-Hydroxyphenyl)azanediyl)bis(N′-(4-nitrobenzylidene)propanehydrazide)] |  |  |  |  |  |  |  |  |  |  |  |  |  | 16 (≈ 29.2 µM) | > 64 | > 64 | > 64 | > 64 | 4 (≈ 7.31 µM)
COc1cc(C=NNC(=O)CCN(CCC(=O)NN=Cc2cc(OC)c(OC)c(OC)c2)c2cccc(O)c2)cc(OC)c1OC [Compound 13, 3,3′-((3-Hydroxyphenyl)azanediyl)bis(N′-(3,4,5-trimethoxybenzylidene)propanehydrazide)] | >64 | >64 | > 64 | >64 | >64 | >64 | > 64 | >64 | > 64 | > 64 | > 64 | > 64 |  |  |  |  |  |  | 
O=C(CCN(CCC(=O)NN=Cc1ccc([N+](=O)[O-])s1)c1cccc(O)c1)NN=Cc1ccc([N+](=O)[O-])s1 [Compound 16, 3,3′-((3-Hydroxyphenyl)azanediyl)bis(N′-((5-nitrothiophen-2-yl)methylene)propanehydrazide)] |  |  |  |  |  |  |  |  |  |  |  |  |  | 4 (≈ 7.15 µM) | 32 (≈ 57.2 µM) | > 64 | > 64 | > 64 | 1 (≈ 1.79 µM)
O=C(CCN(CCC(=O)N/N=C/c1ccc([N+](=O)[O-])o1)c1cccc(O)c1)N/N=C/c1ccc([N+](=O)[O-])o1 [Compound 17] |  | >64 |  |  |  |  |  |  |  |  |  |  |  | > 64 | > 64 | > 64 | > 64 | > 64 | 16 (≈ 30.3 µM)

Now from value to compound, other results behind:

minimal inhibitory concentration (MIC) S. aureus TCH 1516 [1] [µg/mL] | minimal inhibitory concentration (MIC) E. faecalis AR-0671 ([2]; CAMHB) [µg/mL] | MIC [2, 12] [µg/mL] | minimal inhibitory concentration (MIC) E. coli AR-0001 [3] [µg/mL] | minimal inhibitory concentration (MIC) K. pneumoniae AR-0003 [4] [µg/mL] | minimal inhibitory concentration (MIC) P. aeruginosa AR-1114 [5] [µg/mL] | MIC [6, 13] [µg/mL] | minimal inhibitory concentration (MIC) A. baumannii AR-0273 ([6]; OXA-23, CAMHB) [µg/mL] | MIC [8, 14] [µg/mL] | MIC [9] [µg/mL] | MIC [10] [µg/mL] | MIC [11] [µg/mL] | SMILES | post-treatment viability (MTT assay) [7] | MIC [2, 15] [µg/mL] | MIC [3] [µg/mL] | MIC [4] [µg/mL] | MIC [5] [µg/mL] | MIC [6, 16] [µg/mL] | MIC [8, 17] [µg/mL]
 | >64 | > 64 | >64 | >64 | >64 | > 64 | >64 | 8 (≈ 28.4 µM) | > 64 | > 64 | > 64 | NNC(=O)CCN(CCC(=O)NN)c1cccc(O)c1 [Compound 4, 3,3′-((3-Hydroxyphenyl)azanediyl)di(propanehydrazide)] | moderate decrease in viability |  |  |  |  |  | 
>64 | >64 | > 64 | >64 | >64 | >64 | > 64 | >64 | > 64 | > 64 | > 64 | > 64 | O=C(O)CCN1CCC(=O)c2ccc(O)cc21 [Compound 7, 3-(7-Hydroxy-4-oxo-3,4-dihydroquinolin-1(2H)-yl)propanoic Acid] |  |  |  |  |  |  | 
>64 | >64 | > 64 | >64 | >64 | >64 | > 64 | >64 | > 64 | > 64 | > 64 | > 64 | O=C(CCN(CCC(=O)NN=Cc1ccccc1)c1cccc(O)c1)NN=Cc1ccccc1 [Compound 8, 3,3′-((3-Hydroxyphenyl)azanediyl)bis(N′-(benzylidene)propanehydrazide)] |  |  |  |  |  |  | 
>64 | >64 | > 64 | >64 | >64 | >64 | > 64 | >64 | > 64 | > 64 | > 64 | > 64 | O=C(CCN(CCC(=O)N/N=C/c1ccsc1)c1cccc(O)c1)N/N=C/c1ccsc1 [Compound 18] |  |  |  |  |  |  | 
